Results from article PMC2976052 (The Journal of steroid biochemistry and molecular biology, 2010).
Where two headings read alike, the source gives them in different places.

Assays:
GFP-GRER chimera [1] = target: T1, GFP-GRER chimera (Homo sapiens, UniProt P03372); details: ER agonist treatment ref 17; cited from earlier work
GFP-GRER chimera [2] = target: T1, GFP-GRER chimera; assay: cell-based
parental C127 cell line = type: cell-based, murine; details: for nuclear translocation: parental cell line; for nuclear fluorescence in parental cell line: hits retested in parental cell line
GFP-GRER chimera [3] = target: T1, GFP-GRER chimera
6020 cells = assay: Cytotoxicity measurements by image analysis
[4] = estradiol dose response, five 384-well plates
[5] = staurosporine dose-response, 4 hours, 96-well

T1 sequence (P03372 302-595, change not shown): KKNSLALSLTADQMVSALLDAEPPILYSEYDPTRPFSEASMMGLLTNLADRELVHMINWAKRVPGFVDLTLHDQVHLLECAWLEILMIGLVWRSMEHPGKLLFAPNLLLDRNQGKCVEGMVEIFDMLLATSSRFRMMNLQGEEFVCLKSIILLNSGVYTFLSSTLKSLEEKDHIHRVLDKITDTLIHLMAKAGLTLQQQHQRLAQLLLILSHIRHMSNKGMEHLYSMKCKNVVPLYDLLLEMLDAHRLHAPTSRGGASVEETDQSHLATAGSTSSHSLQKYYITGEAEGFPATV

Which results are given for CCCc1c(-c2ccc(O)cc2)nn(-c2ccc(O)cc2)c1-c1ccc(O)cc1 [PPT, propyl pyrazoletriol]?
effect on transcription, ERE-driven gene reporter (GFP-GRER chimera [1]): induced transcription; EC50 (GFP-GRER chimera [2]): 141 nM

What does the source list for COc1cccc2c1C(=O)c1c(O)c3c(c(O)c1C2=O)C[C@@](O)(C(=O)CO)C[C@@H]3O[C@H]1C[C@H](N)[C@H](O)[C@H](C)O1 [adriamycin]?
nuclear translocation (parental C127 cell line; hit retest in quadruplicate): 95%; nuclear translocation (GFP-GRER chimera [3]; 6020 (assay) cell line, hit retest in quadruplicate): 97%

Which “nuclear fluorescence in parental cell line” value (parental C127 cell line) does the source give for C[C@]12CC[C@@H]3c4ccc(O)cc4CC[C@H]3[C@@H]1CC[C@@H]2O [estradiol, 17-β estradiol] here?
Its value is “did not show nuclear fluorescence”.

What about the nuclear translocation (parental C127 cell line; 5 μM estradiol control) of the same compound?
Its nuclear translocation is 0%.

What about the cytoplasmic area (6020 cells; [4]) of the same compound?
The cytoplasmic area was “does not decrease”.

What about the nuclear area (6020 cells; [4]) of the same compound?
Its nuclear area is “remains unchanged”.

For C[C@]12CC[C@@H]3c4ccc(O)cc4CC[C@H]3[C@@H]1CCC2=O [estrone], which “nuclear fluorescence in parental cell line” value (parental C127 cell line) is on record?
The value was “did not show nuclear fluorescence”.

With O=C(c1ccc(OCCN2CCCCC2)cc1)c1c(-c2ccc(O)cc2)sc2cc(O)ccc12 [raloxifene] as the compound, how does the nuclear translocation (parental C127 cell line; hit retest in quadruplicate) read?
The nuclear translocation was 0%.

For CN[C@@H]1C[C@H]2O[C@@](C)([C@@H]1OC)n1c3ccccc3c3c4c(c5c6ccccc6n2c5c31)C(=O)NC4 [staurosporine], which “nuclear translocation result of cytotoxic compound” value (GFP-GRER chimera [3]; staurosporine dose-response for 4 hours, 96-well) is on record?
The value was “false positive nuclear translocation results”.

What about the cytoplasmic area (6020 cells; [5]) of the same compound?
Its cytoplasmic area is “dose-dependent decrease in cytoplasmic area”.

And the nuclear area (6020 cells; [5])?
The nuclear area was “dose-dependent decrease in nuclear area”.

And the “ROIs (cell number)” value (6020 cells; staurosporine dose-response, data not shown)?
Its value is “decrease in cell number with increasing staurosporine concentration”.
